{"source": "patent US7919480B2", "about": "“Polymers having covalently bound antibiotic agents” (Ethicon, Inc., priority 2007, dated 2011)", "system": "S. aureus ATCC 6538", "assay": "log reduction assay (Example 4)", "format": "cell-based", "description": "Sample of ONM covalently bound to ORC (ORC-ONM-CV) from example 3 were tested for its in vitro efficacy by log reduction assay. In the log reduction assay, the test articles (squares of about 4.0 mg/piece) were challenged with about 1-2×10e4 CFU bacteria on the surface of the test articles for one hour. To facilitate the test of efficacy on surface of the test articles with covalent bound ONM, the inoculum was delivered in 10 ul/item, the small volume relative to the test articles allowed complete absorption of the inoculum by the test articles such that the inoculum localized on surfaces of the test articles. The inoculum was prepared in 20× potassium phosphate buffer, which maintained pH of the test articles close to neutral. The antimicrobial efficacy of ORC at neutral pH will be minimized, so that the log reduction would indicate the antibacterial efficacy of ONM rather than ORC. After the challenge, the test article was immersed in saline with shaking to remove survival bacteria and the survival bacteria were measured by plate count. The plate counts were conducted in trypticase soy agar and incubated at 37° C. for 24 hours.", "data": [{"sequence": "POLYQUATERNIUM 1 [ONM control]", "values": [{"measurement": "log reduction", "setting": "log CFU of inoculum − log CFU of treated, 1 h challenge", "result": 4.2, "unit": "log"}, {"measurement": "log CFU", "setting": "surviving bacteria after 1 h challenge with about 1-2x10e4 CFU, neutral pH", "result": 0.3, "unit": "log CFU"}]}]}
